Tested on: TNF-α secretion from LPS-stimulated PBMC
Assay: TNF-α secretion from LPS-stimulated PBMC with p38 inhibitor loaded in the outer compartment (ELISA)
Format: cell-based, human
Settings: outer compartments loaded with 10.99 ng, 109.9 ng or 1099 ng, 1×10^6 PBMC on inner compartment, LPS 10 ng/ml overnight
Procedure: Outer compartments were made from a composite matrix similar to the one prepared in Example 3. The compartments were loaded with three different amounts (10.99 ng, 109.9 ng, or 1099 ng) of p38 kinase inhibitor (JNJ 3026582, also known as RWJ 67657). The chemical structure of this compound (4-[4-(4-fluorophenyl)-1-(3-phenylpropyl)-5-44-pyridinyl)-1H-imidazol-2-yl]-3-butyn-1-ol) has been previously documented (Wadsworth et al., J. Pharm. Exp. Ther 291:680-687, 1999).
The inner compartments were prepared from a non-woven Vicryl® fibrous matrix fabricated as described in Example 2. Mononuclear cells were freshly isolated from human peripheral blood, counted and adjusted to a final cell number in RPMI-1640 (Invitrogen Life Technologies, Carlsbad, Calif.) with 1% fetal bovine serum (FBS, HyClone, Logan, UT). A total of 1×10^6 cells in a final volume of 50ul were seeded onto the inner compartments.
The two compartments were combined and pre-cultured for 1 hour in a 24-well plate with 0.5 ml culture medium. A stimulus of LPS (lipopolysaccharide) (10 ng/ml; Sigma, St. Louis, Mo.) was added to each well and incubated overnight at 37° C., 5%CO2. Supernatant from each well was collected and analyzed for TNF-α content using a standard commercial ELISA kit (R&D Systems, Minneapolis, Minn.). […]

## OCCC#Cc1nc(-c2ccc(F)cc2)c(-c2ccncc2)n1CCCc1ccccc1 [RWJ 67657]
  inhibition of TNF-α secretion: dose dependent inhibition
Listed as p38 inhibitor
  inhibition of TNF-α secretion: inhibited in a dose-dependent manner

Source: patent US20060153894A1, “Multi-compartment delivery system” (priority 2004, published 2006)
